Source: patent US20210293825A1, “METHODS FOR PRECISION THERAPEUTIC TARGETING OF HUMAN CANCER CELL MOTILITY AND KITS THEREOF” (UNITED STATES GOVERNMENT AS REPRESENTED BY THE DEPARTMENT …, priority 2018, published 2021)

Assays:
[1] = system: recombinant human protein kinases; test: Kinex kinase assay system (inhibition of ATP binding); conditions: tested at 1 and 10 μM
Procedure: Kinase assay system #2. The Kinex™ kinase assay system (Kinexus Proteomics Company). This platform uses recombinant human protein kinases expressed in an insect expression system, thus allowing an avenue for post-translational modification. Also, this platform measures inhibition of ATP binding. This platform putatively measured 200 different kinases, and we tested KBU2046 at 1 and 10 μM. […] There were two important technical issues. First, at 10 μM KBU2046 interfered with the colorimetric-based readout of the assay. […] Conclusions: there was no evidence that KBU2046 inhibits kinase function by competing for ATP binding in the active site.

PC3-M cells [2] = test: Boyden chamber cell invasion assay, PC3-M cells; assay type: cell-based, human
Procedure: Following the synthetic strategy outlined in FIG. 1a, 4′,5,7-trihydroxyisoflavone was used as the chemical scaffold. […] Note, demethylation within the cell cannot be predicted. Therefore, the loss of function was considered to be informative for methylated compounds. […] This adds further evidence of the importance of the C4′-hydroxyl for activity. […] For cell invasion, PC3-M cells were treated with 10 μM compound for a total of 3 days, and cell invasion assays were run at the end of the 3 day period, in the presence of compound. Values are the mean±SEM of three separate experiments, each run in replicates of N=3. […] Values are the mean±SEM of a single experiment, in replicates of N=4, repeated at least once (also N=4). […] The initial structure-activity relationship (SAR) data informed the second round of compound synthesis. […] Compared to 4′,5,7-trihydroxyisoflavone, KBU2046 is non-planar, lacks hydroxyl groups, and particularly those that mediate ER binding, is halogen-substituted, and has a distinctly different biological profile. These characteristics place KBU2046 in a chemically distinct class, compared to the starting compound.
Cell Invasion Assays. Boyden chamber cell invasion assays were performed as previously described^9, using either denatured collagen (BD Biosciences) or type IV human collagen (BD Biosciences), with the experiments repeated, each in N=4 replicates. In some experiments, as indicated, cells were transfected with an expression plasmid, using Lipofectamine 2000™ (Invitrogen), or with siRNA, using DharmaFect Duo (Thermo Scientific) and co-transfected with β-Galactosidase (Plasmid pCMV⋅SPORT-βgal; Life Technology).
The initial round of synthesis was designed to examine the removal of individual chemical fragments. In this manner, the importance of these functional groups in mediating efficacy (inhibition of cell invasion) could be determined. […] Initial assays were performed with PC3 and PC3-M cells. However, as these studies yielded similar findings, subsequent screening assays utilized only PC3-M cells. In designing chemical synthetic routes, priority was given to efficacy and toxicity parameters. […] These additional design features included removal of fragments that mediated genistein binding to the estrogen receptor (ER), as determined by ER-genistein 3D x-ray crystal structures (Protein Data Base IDs: 1X7R and 1X7J, for crystal structures of ERα and ERβ with bound genistein, respectively). These features also included removal of chemical fragments that are considered to increase susceptibility to rapid metabolism, for example by the cytochrome P450 (CYP) pathway. The final feature involved incorporation of chemical characteristics previously shown to be associated with effective drugs and which together generally impart more favorable pharmacologic properties, including those described by Lipinski et al. (Lipinski, C. A. et al., Adv Drug Deliv Rev 46, 3-26 (2001)).

PC3-M cells [3] = test: Three day MTT cell growth inhibition assay, PC3-M cells; assay type: cell-based, human
MKK4 = target: T1, MKK4 (Homo sapiens, UniProt P45985, S257E/T261E); test: MKK4 in vitro kinase assay; assay type: biochemical; conditions: phosphorylation of kinase dead p38a MAPK
T1 sequence (P45985 37-399 S257E/T261E): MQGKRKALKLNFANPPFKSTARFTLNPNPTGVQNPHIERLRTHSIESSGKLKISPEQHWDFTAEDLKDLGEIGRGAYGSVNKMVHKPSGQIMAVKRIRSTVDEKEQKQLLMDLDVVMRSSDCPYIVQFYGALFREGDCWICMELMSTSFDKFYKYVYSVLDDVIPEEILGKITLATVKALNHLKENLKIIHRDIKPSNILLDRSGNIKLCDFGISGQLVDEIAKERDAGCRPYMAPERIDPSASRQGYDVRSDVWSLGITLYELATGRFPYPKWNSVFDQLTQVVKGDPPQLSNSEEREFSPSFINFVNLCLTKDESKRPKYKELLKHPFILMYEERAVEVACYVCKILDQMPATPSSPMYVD
Procedure: FIG. 16a is a depiction of established MKK4 pathway regulating human PCa cell metastasis. […] Values are the mean±SD (of N=2 replicates) increase in melting temperature (ΔTm) of purified recombinant MKK4 induced by the indicated concentrations of KBU2046 or genistein. […] The indicated concentrations of KBU2046 were added to recombinant activated MKK4, and its ability to phosphorylate kinase dead p38a MAPK (K53A) was measured by Western blot for total (p38 MAPK) and phosphorylated (pp38 MAPK) forms of p38 MAPK. […] PC3-M cells were pre-treated for 24 hours with 50 μM KBU2046 or genistein, as indicated, then with TGFβ, and Western blot performed. These findings are from a single experiment, with similar findings in identical separate experiments, repeated at least once.
In Vitro Kinase Assays. MEK4/MKK4/MAP2K4 in vitro kinase assay was performed as described (Krishna, S. N. et al., PLoS One 8, e81504 (2013)). HSP90β/CDC37 heterocomplex kinase assays with RAF1, SGK3 and MAP3K6 assays incubated indicated proteins in 20 mM MOPS, pH 7.2, 25 mM β-glycerol phosphate, 5 mM EGTA, 1 mM sodium orthovanadate, 1 mM dithiothreitol, 0.25 mM ATP and 37.5 mM MgCl2 at 30° C. for the indicated times.

O=C1c2ccccc2OCC1c1ccc(F)cc1 (racemic) [KBU2046, (±)-3(4-fluorophenyl)chroman-4-one]
inhibition of ATP binding [1]: completely negative
effect on cell invasion (PC3-M cells [2]; 10 μM compound, 3 days): anti-invasive efficacy at least equal to that of the starting compound
inhibition of cell invasion (PC3-M cells [2]; (S226A)-HSP90β transfected PC3-M cells): does not further inhibit cell invasion
inhibition of cell invasion (PC3-M cells [2]; (S226D)-HSP90β transfected PC3-M cells): did not significantly inhibit cell invasion
anti-invasion efficacy under TGFβ-stimulated invasion (PC3-M cells [2]; PC3-M cells, ±TGFβ): retains efficacy
inhibition of cell invasion (PC3-M cells [2]; VC and WT-HSP90β transfected PC3-M cells): significantly inhibited invasion
efficacy on cell invasion (PC3-M cells [2]; siRNA-mediated HSP90β knockdown): abrogated KBU2046 efficacy
inhibition of cell invasion (PC3-M cells [2]; vector control (VC) transfected PC3-M cells): significantly inhibits invasion
cell growth inhibition (PC3-M cells [3]): no growth inhibitory effects
inhibition of MKK4 kinase activity (MKK4): does not inhibit MKK4
